Measured values taken from publication PMC12645998, “Optimization of VE607 to generate analogs with improved neutralization activities against SARS-CoV-2 variants” (Journal of Virology, 2025).
pIC50: −log10 of the molar value. “And” between values parts separate entries of the source, which are not always exact repeats. Equal values may be shown once. Read-outs that look alike come from different tables or passages of the source.

How the values were obtained:
[1] = test system: SARS-CoV-2 B.1.1.7 Spike pseudovirus; experiment: organism not typed; format: cell-based; conditions: read-out: IC50 B.1.1.7
[2] = test system: SARS-CoV-2 XBB.1.16 Spike pseudovirus; experiment: organism not typed; format: cell-based; conditions: read-out: IC50 XBB.1.16
[3] = test system: SARS-CoV-2 BA.4/5 Spike pseudovirus; experiment: organism not typed; format: cell-based; conditions: read-out: IC50 BA.4/5
[4] = test system: SARS-CoV-2 (Wuhan strain) ectodomain SΔTM trimers; conditions: 0.1 µM labeled Spike; 50 µM compound, 0.3 µM CV3-13, 0.6 µM ACE2; unbound Spike 40% ± 2%
293T-ACE2 cells = experiment: Cell viability test (CellTiter-Glo), 293T-ACE2; conditions: concentrations up to 100 µM, 48 h
Vero-E6 cells = experiment: Cell viability test (CellTiter-Glo), Vero-E6; conditions: concentrations up to 100 µM, 48 h
[5] = test system: SARS-CoV-2 EG.5.1 Spike pseudovirus; experiment: organism not typed; format: cell-based; conditions: read-out: IC50 EG.5.1
[6] = test system: pseudoviral particles carrying VSV-G; experiment: microbe, parasite or virus in culture; format: cell-based; conditions: Vesicular stomatitis virus
[7] = test system: SARS-CoV-2 BA.2.86 Spike pseudovirus; experiment: organism not typed; format: cell-based; conditions: read-out: IC50 BA.2.86
[8] = test system: pseudoviral particles carrying SARS-CoV-1 S; experiment: microbe, parasite or virus in culture; format: cell-based
[9] = test system: SARS-CoV-2 JN.1 Spike pseudovirus; experiment: organism not typed; format: cell-based; conditions: read-out: IC50 JN.1
[10] = test system: authentic SARS-CoV-2 XBB.1; experiment: microbe, parasite or virus in culture; format: cell-based; conditions: Severe acute respiratory syndrome coronavirus 2, Vero C1008, read-out: IC50 authentic SARS-CoV-2 XBB.1
[11] = test system: SARS-CoV-2 KP.3.1.1 Spike pseudovirus; experiment: organism not typed; format: cell-based; conditions: read-out: IC50 KP.3.1.1
[12] = test system: SARS-CoV-2 XBB.1.5 Spike pseudovirus; experiment: organism not typed; format: cell-based; conditions: read-out: IC50 XBB.1.5
[13] = test system: pseudoviral particles bearing the Spike glycoprotein from SARS-CoV-2; experiment: microbe, parasite or virus in culture; format: cell-based; conditions: pseudovirus, 293T-ACE2 cells, compounds up to 100 µM
[14] = test system: SARS-CoV-2 XEC Spike pseudovirus; experiment: organism not typed; format: cell-based; conditions: read-out: IC50 XEC
[15] = test system: SARS-CoV-2 HK.3 Spike pseudovirus; experiment: organism not typed; format: cell-based; conditions: read-out: IC50 HK.3
[16] = in vivo
SARS-CoV-2WA1-nLuc = test system: SARS-CoV-2WA1-nLuc; parameters: species or system K18-hACE2 mice; conditions: mouse, in vivo
[17] = Solubility in phosphate-buffered saline
[18] = 293T/ACE2, read-out: IC50 VSV-G
[19] = Severe acute respiratory syndrome coronavirus, 293T/ACE2, read-out: IC50 SARS-CoV-1
[20] = Severe acute respiratory syndrome coronavirus 2, 293T/ACE2, read-out: IC50 SARS-CoV-2, Table 1

Row | Compound | pIC50 [1] | pIC50 [2] | pIC50 [3] | RBD-up conformation occupancy [4] | Toxicity in 293T-ACE2 cells (293T-ACE2 cells) | Toxicity in Vero-E6 cells (Vero-E6 cells) | pIC50 [5] | pIC50 [6, 18] | pIC50 ([6]; 293T/ACE2, read-out: IC50 VSVG) | pIC50 [7] | pIC50 [8, 19] | pIC50 ([8]; read-out: IC50 SARS-CoV-1) | pIC50 [9] | pIC50 [10] | pIC50 [11] | pIC50 [12] | pIC50 [13, 20] | pIC50 [14] | pIC50 [15] | Solubility in phosphate-buffered saline (PBS) [17] | other results
1 | CCN(C)C[C@@H](O)COc1cc(Br)cc(OC[C@H](O)CN(C)CC)c1 [Compound 33] | 5.84 | 5.67 | 5.55 | 61% ± 2% | no toxicity | no toxicity | 5.74 | < 4.00 | < 4.00 | 5.53 | 5.84 | 5.89 | 5.69 | 4.77 | 5.52 | 5.61 | 5.77 | 5.62 | 5.63 | – | –
2 | O[C@@H](COc1cccc(OC[C@H](O)CN2CCCCC2)c1)CN1CCCCC1 [(R,R)-VE607, reference compound] | 5.93 | 5.69 | 5.24 | – | – | – | 5.88 | < 4.00 | < 4.00 | 5.58 | 6.10 | 6.05 | 5.19 | 4.23 | 5.33 | 6.00 | 6.01 | 5.41 | 5.41 | – | –
3 | ACE2 | – | – | – | 67% ± 2% | – | – | – | – | – | – | – | – | – | – | – | – | – | – | – | – | –
4 | CN(C)C[C@@H](O)COc1cc(Br)cc(OC[C@H](O)CN(C)C)c1 [Compound 27] | 5.95 | 5.74 | 5.84 | 55% ± 2% | no toxicity | no toxicity | 5.95 | 4.28 | < 4.00 | 5.48 | 6.21 | 6.20 and 6.03 | 5.87 | 4.62 | 5.62 | 5.98 | 6.36 | 5.75 | 6.14 | – | Concentration in plasma ([16]; both, K18-hACE2, mouse): ~ 1.5 µM; Plasma retention ([16]; mouse): short plasma retention; Brain penetration ([16]; mouse, ip): minimal penetration in the brain; Protection / survival outcome (SARS-CoV-2WA1-nLuc): succumbed to virus-induced mortality; Survival extended compared to the control group (SARS-CoV-2WA1-nLuc): 1 days; pIC50 ([13]; read-out: IC50 SARS-CoV-2, Table 1): 6.36
5 | O[C@H](CNCc1ccc(OC(F)(F)F)cc1)COc1cc(Br)cc(OC[C@H](O)CNCc2ccc(OC(F)(F)F)cc2)c1 [Compound 39] | – | – | – | – | – | – | – | – | – | – | – | – | – | – | – | – | – | – | – | b Insoluble in phosphate-buffered saline (PBS). | –
6 | O[C@@H](COc1cc(Br)cc(OC[C@H](O)CN2CCC(O)(c3ccc(Cl)cc3)CC2)c1)CN1CCC(O)(c2ccc(Cl)cc2)CC1 [Compound 32] | – | – | – | – | – | – | – | – | – | – | – | – | – | – | – | – | – | – | – | b Insoluble in phosphate-buffered saline (PBS). | –
7 | CN1CCN(C[C@@H](O)COc2cc(Br)cc(OC[C@H](O)CN3CCN(C)CC3)c2)CC1 [Compound 30] | 5.90 | 5.85 | 5.31 | – | no toxicity | no toxicity | 5.82 | 4.09 | < 4.00 | 5.45 | 5.70 | 5.88 | 5.41 | 4.42 | 5.67 | 5.98 | 5.83 | 5.51 | 6.27 | – | –
8 | Cc1cccc(N2CCN(C[C@@H](O)COc3cccc(OC[C@H](O)CN4CCN(c5cccc(C)c5)CC4)c3)CC2)c1 [Compound 18] | – | – | – | – | – | – | – | – | – | – | – | – | – | – | – | – | – | – | – | b Insoluble in phosphate-buffered saline (PBS). | –
